Results on two compounds are retold here after patent publication US20090087497A1, “Compositions and methods for treating symptoms of aging” (Burnham Institute for Medical Research, priority 2007, published 2009).

The subject of one data set is flies. Kind of data set: Development of flies under doxycycline. The class given is in vivo, Drosophila.
Another data set relates to mice. The following applies: 2 mg/ml in the drinking water, chronic; cited from earlier work.
A further data set concerns Drosophila melanogaster. Kind of data set: Screen of individual and combined compounds on age-related physiological parameters (maximal heart rate and exercise capacity). The class given is in vivo. The settings on record: separate study of the five best combinations with larger number of flies; FIG. 3. The source says:
The first dataset of combined interventions. We performed an initial screen of compounds for their effects on cardiac aging in Drosophila, selected for their very general effects on multiple biological functions, known low toxicity and, for some, known effects on aging in other models (Wood et al., Nature 430:686-689, 2004).
After screening 44 compounds individually at multiple doses (a total of 300 groups, each composed of 10-20 flies), we chose two doses each of four compounds for more comprehensive measurements of their combined effects on three age-related phenotypes: maximal heart rate and exercise capacity declines with age and survival. […]

For `C[C@H]1c2cccc(O)c2C(=O)C2=C(O)[C@]3(O)C(=O)C(C(N)=O)=C(O)[C@@H](N(C)C)[C@@H]3[C@@H](O)[C@@H]21` [doxycycline], the “effect on development in flies” value in the data set on flies is on record as “slows development”. Moreover, in the data set on mice, the “effect on body weight” value is “no effect” and the plasma levels entry is reported as “close to saturation”.

On to `Oc1ccc(C=Cc2cc(O)cc(O)c2)cc1` [resveratrol], for which the “functional improvement confirmed in additional tests (climbing velocity and maximal heart rate)” value in the data set on Drosophila melanogaster is “not”.
